In article PMC7377239, “Cardiovascular Effects of Polychlorinated Biphenyls and Their Major Metabolites” (Environmental Health Perspectives, 2020):
Where two headings read alike, the source gives them in different places.

System: iCell cardiomyocytes (human iPSC-derived cardiomyocytes)
Assay: Intracellular Ca2+ flux / beating parameters in iCell cardiomyocytes (FLIPR tetra), 90 min or 24 h
Assay type: cell-based
Details: 0.00 µM = 100.00; for activity at 0.01 µM / activity at 0.1 µM / activity at 1 µM / activity at 10 µM / activity at 100 µM: Homo sapiens, Cardiomyocyte
Method in brief: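 PODs were defined as the concentration crossing one SD of the vehicle-control means (0.5% DMSO) on four-parameter logistic fits of Ca2+ trace metrics (peak height, frequency, peak-spacing CV, decay/rise ratio). Traces came from 100 s, 8 Hz FLIPR reads at 37 °C on calcium-dye-loaded iCell cardiomyocytes. Before reading, cells were treated for 90 min or 24 h from 5× chemical plates spanning 0.05–500 µM, in triplicate.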

Clc1ccc(-c2cc(Cl)c(Cl)c(Cl)c2)cc1Cl [PCB126]
activity at 0.01 µM (1.5 h, 0.01 µM, 90min, read-out: cm.amp.avg.90min): 100%
activity at 0.01 µM (1.5 h, 0.01 µM, 90min, read-out: cm.amp.cv.90min): 110%
activity at 0.01 µM (1.5 h, 0.01 µM, 90min, read-out: cm.bpm.90min): 107%
activity at 0.01 µM (1.5 h, 0.01 µM, 90min, read-out: cm.decay.rise.90min): 102%
activity at 0.01 µM (1.5 h, 0.01 µM, 90min, read-out: cm.spacing.cv.90min): 135%
activity at 0.1 µM (1.5 h, 0.10 µM, 90min, read-out: cm.amp.avg.90min): 102%
activity at 0.1 µM (1.5 h, 0.10 µM, 90min, read-out: cm.amp.cv.90min): 139%
activity at 0.1 µM (1.5 h, 0.10 µM, 90min, read-out: cm.bpm.90min): 97.8%
activity at 0.1 µM (1.5 h, 0.10 µM, 90min, read-out: cm.decay.rise.90min): 99.8%
activity at 0.1 µM (1.5 h, 0.10 µM, 90min, read-out: cm.spacing.cv.90min): 119%
activity at 1 µM (1.5 h, 1.00 µM, 90min, read-out: cm.amp.avg.90min): 102%
activity at 1 µM (1.5 h, 1.00 µM, 90min, read-out: cm.amp.cv.90min): 114%
activity at 1 µM (1.5 h, 1.00 µM, 90min, read-out: cm.bpm.90min): 105%
activity at 1 µM (1.5 h, 1.00 µM, 90min, read-out: cm.decay.rise.90min): 96%
activity at 1 µM (1.5 h, 1.00 µM, 90min, read-out: cm.spacing.cv.90min): 115%
activity at 10 µM (1.5 h, 10.00 µM, 90min, read-out: cm.amp.avg.90min): 90.3%
activity at 10 µM (1.5 h, 10.00 µM, 90min, read-out: cm.amp.cv.90min): 363%
activity at 10 µM (1.5 h, 10.00 µM, 90min, read-out: cm.bpm.90min): 128%
activity at 10 µM (1.5 h, 10.00 µM, 90min, read-out: cm.decay.rise.90min): 83%
activity at 100 µM (1.5 h, 100.00 µM, 90min, read-out: cm.amp.avg.90min): 117%
activity at 100 µM (1.5 h, 100.00 µM, 90min, read-out: cm.amp.cv.90min): 120%
activity at 100 µM (1.5 h, 100.00 µM, 90min, read-out: cm.bpm.90min): 135%
activity at 100 µM (1.5 h, 100.00 µM, 90min, read-out: cm.decay.rise.90min): 86.2%
activity at 100 µM (1.5 h, 100.00 µM, 90min, read-out: cm.spacing.cv.90min): 106%
activity at 0.01 µM (24 h, 0.01 µM, 24hrs, read-out: cm.amp.avg.24hrs): 73.3%
activity at 0.01 µM (24 h, 0.01 µM, 24hrs, read-out: cm.amp.cv.24hrs): 143%
activity at 0.01 µM (24 h, 0.01 µM, 24hrs, read-out: cm.bpm.24hrs): 100%
activity at 0.01 µM (24 h, 0.01 µM, 24hrs, read-out: cm.decay.rise.24hrs): 101%
activity at 0.01 µM (24 h, 0.01 µM, 24hrs, read-out: cm.spacing.cv.24hrs): 122%
activity at 0.1 µM (24 h, 0.10 µM, 24hrs, read-out: cm.amp.avg.24hrs): 79.8%
activity at 0.1 µM (24 h, 0.10 µM, 24hrs, read-out: cm.amp.cv.24hrs): 120%
activity at 0.1 µM (24 h, 0.10 µM, 24hrs, read-out: cm.bpm.24hrs): 100%
activity at 0.1 µM (24 h, 0.10 µM, 24hrs, read-out: cm.decay.rise.24hrs): 109%
activity at 0.1 µM (24 h, 0.10 µM, 24hrs, read-out: cm.spacing.cv.24hrs): 117%
activity at 1 µM (24 h, 1.00 µM, 24hrs, read-out: cm.amp.avg.24hrs): 72.2%
activity at 1 µM (24 h, 1.00 µM, 24hrs, read-out: cm.amp.cv.24hrs): 128%
activity at 1 µM (24 h, 1.00 µM, 24hrs, read-out: cm.bpm.24hrs): 104%
activity at 1 µM (24 h, 1.00 µM, 24hrs, read-out: cm.decay.rise.24hrs): 97.6%
activity at 1 µM (24 h, 1.00 µM, 24hrs, read-out: cm.spacing.cv.24hrs): 113%
activity at 10 µM (24 h, 10.00 µM, 24hrs, read-out: cm.amp.avg.24hrs): 78.8%
activity at 10 µM (24 h, 10.00 µM, 24hrs, read-out: cm.amp.cv.24hrs): 38.8%
activity at 10 µM (24 h, 10.00 µM, 24hrs, read-out: cm.bpm.24hrs): 68.7%
activity at 10 µM (24 h, 10.00 µM, 24hrs, read-out: cm.decay.rise.24hrs): 50%
activity at 10 µM (24 h, 10.00 µM, 24hrs, read-out: cm.spacing.cv.24hrs): 66.1%
activity at 100 µM (24 h, 100.00 µM, 24hrs, read-out: cm.amp.avg.24hrs): 20.9%
activity at 100 µM (24 h, 100.00 µM, 24hrs, read-out: cm.amp.cv.24hrs): 121%
activity at 100 µM (24 h, 100.00 µM, 24hrs, read-out: cm.bpm.24hrs): 70.6%
activity at 100 µM (24 h, 100.00 µM, 24hrs, read-out: cm.decay.rise.24hrs): 29.1%
activity at 100 µM (24 h, 100.00 µM, 24hrs, read-out: cm.spacing.cv.24hrs): 81%

Clc1ccc(Cl)c(-c2c(Cl)ccc(Cl)c2Cl)c1Cl [(-)-PCB 136, 2,2′,3,3′,6,6′-hexachlorobiphenyl]
cm.amp.avg.90min (0.01 µM, 90min): 93.19
cm.amp.cv.90min (0.01 µM, 90min): 114.99
cm.bpm.90min (0.01 µM, 90min): 99.06
cm.decay.rise.90min (0.01 µM, 90min): 100.18
cm.spacing.cv.90min (0.01 µM, 90min): 110.22
cm.amp.avg.24hrs (0.01 µM, 24hrs): 96.89
cm.amp.cv.24hrs (0.01 µM, 24hrs): 99.89
cm.bpm.24hrs (0.01 µM, 24hrs): 97.37
cm.decay.rise.24hrs (0.01 µM, 24hrs): 110.34
cm.spacing.cv.24hrs (0.01 µM, 24hrs): 99.92
cm.amp.avg.90min (0.10 µM, 90min): 107.52
cm.amp.cv.90min (0.10 µM, 90min): 110.59
cm.bpm.90min (0.10 µM, 90min): 101.57
cm.decay.rise.90min (0.10 µM, 90min): 100.78
cm.spacing.cv.90min (0.10 µM, 90min): 107.82
cm.amp.avg.24hrs (0.10 µM, 24hrs): 74.13
cm.amp.cv.24hrs (0.10 µM, 24hrs): 32.34
cm.bpm.24hrs (0.10 µM, 24hrs): 44.87
cm.decay.rise.24hrs (0.10 µM, 24hrs): 55.66
cm.spacing.cv.24hrs (0.10 µM, 24hrs): 50.62
cm.amp.avg.90min (1.00 µM, 90min): 95.68
cm.amp.cv.90min (1.00 µM, 90min): 133.10
cm.bpm.90min (1.00 µM, 90min): 102.82
cm.decay.rise.90min (1.00 µM, 90min): 105.32
cm.spacing.cv.90min (1.00 µM, 90min): 97.68
cm.amp.avg.24hrs (1.00 µM, 24hrs): 66.49
cm.amp.cv.24hrs (1.00 µM, 24hrs): 35.31
cm.bpm.24hrs (1.00 µM, 24hrs): 50.60
cm.decay.rise.24hrs (1.00 µM, 24hrs): 50.54
cm.spacing.cv.24hrs (1.00 µM, 24hrs): 53.09
cm.amp.avg.90min (10.00 µM, 90min): 76.03
cm.amp.cv.90min (10.00 µM, 90min): 119.24
cm.bpm.90min (10.00 µM, 90min): 115.36
cm.decay.rise.90min (10.00 µM, 90min): 88.64
cm.spacing.cv.90min (10.00 µM, 90min): 116.95
cm.amp.avg.24hrs (10.00 µM, 24hrs): 43.21
cm.amp.cv.24hrs (10.00 µM, 24hrs): 38.97
cm.bpm.24hrs (10.00 µM, 24hrs): 43.91
cm.decay.rise.24hrs (10.00 µM, 24hrs): 43.15
cm.spacing.cv.24hrs (10.00 µM, 24hrs): 54.11
cm.amp.avg.90min (100.00 µM, 90min): 0.00
cm.amp.cv.90min (100.00 µM, 90min): 0.00
cm.bpm.90min (100.00 µM, 90min): 0.00
cm.decay.rise.90min (100.00 µM, 90min): 0.00
cm.spacing.cv.90min (100.00 µM, 90min): 0.00
cm.amp.avg.24hrs (100.00 µM, 24hrs): 0.00
cm.amp.cv.24hrs (100.00 µM, 24hrs): 0.00
cm.bpm.24hrs (100.00 µM, 24hrs): 0.00
cm.decay.rise.24hrs (100.00 µM, 24hrs): 0.00
cm.spacing.cv.24hrs (100.00 µM, 24hrs): 0.00
